How the values were obtained:
[1] = Plasma protein binding by equilibrium dialysis, human; assay type: in vitro ADME; settings: read-out: Plasma Protein Binding (Bound %) Human (converted)
Method: (§1) In vitro pharmacokinetic analyses were performed in duplicate using standard methods by WuXi AppTec Co. Ltd. (Shanghai, China). Plasma protein binding was measured by equilibrium dialysis; % bound=(1−[free compound in dialysate]/[total compound in retentate])×100. […] Liver microsome stability of 1 uM compounds in liver microsomes (0.5 mg/ml) after 0, 5, 10, 20, 30, 60 min. incubation was assessed by LC/MS/MS of reaction extracts.

[2] = Plasma protein binding by equilibrium dialysis, mouse; assay type: in vitro ADME; settings: read-out: Plasma Protein Binding (Bound %) Mouse (converted)
Method: as §1

mitofusin = experiment: Dose-response of mitofusin agonist fusogenicity (mitochondrial aspect ratio); assay type: cell-based, mouse; settings: Mfn1-KO or Mfn2-KO MEFs; mitochondrial aspect ratio indexed to maximal response of Compound 22; overnight
Method: Wild-type MEFs were prepared from E10.5 c57/bl6 mouse embryos. SV-40 T antigen-immortalized MFN1 null (CRL-2992), MFN2 null (CRL-2993) and MFN1/MFN2 double null MEFs (CRL-2994) were purchased from ATCC.
Mitochondria were then stained with MitoTracker Orange (200 nM; M7510; Invitrogen, Carlsbad, CA, USA). Nuclei were stained with Hoescht ([…]; Invitrogen, Thermo Fisher Scientific Cat: #1-3570). […] Response curves were interpolated using the sigmoidal model using Prism 8 software.

[3] = Liver microsome stability, human; assay type: in vitro ADME; settings: 1 uM compound, human liver microsomes 0.5 mg/ml; read-out: Liver Microsomes (t1/2, minutes) Human
Method: as §1

[4] = Liver microsome stability, mouse; assay type: in vitro ADME; settings: 1 uM compound, mouse liver microsomes 0.5 mg/ml; read-out: Liver Microsomes (t1/2, minutes) Mouse
Method: as §1

| SMILES | fraction unbound [1] | fraction unbound [2] | EC50 (mitofusin) [nM] | half-life at 1 uM [3] [min] | half-life at 1 uM [4] [min] |
| --- | --- | --- | --- | --- | --- |
| O=C(N[C@H]1CC[C@H](O)CC1)C1CCC(CCCc2ccccc2)C1 (stereo partly drawn) [15 (Exp.), N-(4-hydroxycyclohexyl)-3-(3-phenylpropyl)cyclopentane-1-carboxamide] | 0.007 | 0.012 | 15.3 |  |  |
| O=C(CCCCCc1ccccc1)NC1CCOCC1 [23 (Comp.)] |  |  | 6.3 | 23.7 | 112 |
